Measured values: patent publication US20030065066A1, “Triazine UV absorbers comprising amino resins” (priority 1998, published 2003)

Assay: Solubility in xylenes
Type: physicochemical
Text: A major advantage of alkoxymethylated melamine triazine UV absorbers of the present invention is not only their improved solubility, but also their improved compatibility with coatings resins compared to the corresponding triazine precursors. For example 2,4-bis(2,4-dimethylphenyl)-6-[2-hydroxy-4-(2-hydroxyethoxy)phenyl]-1,3-5-triazine is only soluble in xylenes to the extent of about 0.5%. […] Therefore Compound A is much easier to dissolve in high solids coating resin formulations than 2,4-bis(2,4-dimethylphenyl)-6-[2-hydroxy-4-(2-hydroxyethoxy)phenyl]-1,3-5-triazine, and overcomes the problem of cratering and poor weatherability of the final coatings due to undissolved UV absorber particles.

2,4-bis(2,4-dimethylphenyl)-6-[2-hydroxy-4-(2-hydroxyethoxy)phenyl]-1,3-5-triazine [Compound a]
xylenes solubility: about 0.5%
